The target in the test is T1, human TRPV4 (Homo sapiens, UniProt Q9HBA0).
T1 construct: host or cells: tetracycline-inducible Flp-In T-REx 293 cells
Description: Hypotonicity-induced Ca2+ influx (Fluo-4, FDSS). In kind it is cell-based. Summed up:
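Flp-In T-REx 293 cells with tetracycline-induced human TRPV4, loaded with Fluo-4 for 60 min at 25 °C. Compound added 5 min before hypotonic mannitol/CaCl2 solution. Ca2+ signal recorded for 4.5 min on FDSS.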

Where [1] appears, read: Flp-In T-REx 293 cells expressing human TRPV4, examples listed under heading 'Human IC50<50 nM'.
Where [2] appears, read: Flp-In T-REx 293 cells stably expressing human TRPV4, compounds listed by potency bin (<10 nM Tables 96-1/96-2, <3 nM Table 97).

The structures appear in SMILES notation.

T1 sequence (Q9HBA0 whole entry): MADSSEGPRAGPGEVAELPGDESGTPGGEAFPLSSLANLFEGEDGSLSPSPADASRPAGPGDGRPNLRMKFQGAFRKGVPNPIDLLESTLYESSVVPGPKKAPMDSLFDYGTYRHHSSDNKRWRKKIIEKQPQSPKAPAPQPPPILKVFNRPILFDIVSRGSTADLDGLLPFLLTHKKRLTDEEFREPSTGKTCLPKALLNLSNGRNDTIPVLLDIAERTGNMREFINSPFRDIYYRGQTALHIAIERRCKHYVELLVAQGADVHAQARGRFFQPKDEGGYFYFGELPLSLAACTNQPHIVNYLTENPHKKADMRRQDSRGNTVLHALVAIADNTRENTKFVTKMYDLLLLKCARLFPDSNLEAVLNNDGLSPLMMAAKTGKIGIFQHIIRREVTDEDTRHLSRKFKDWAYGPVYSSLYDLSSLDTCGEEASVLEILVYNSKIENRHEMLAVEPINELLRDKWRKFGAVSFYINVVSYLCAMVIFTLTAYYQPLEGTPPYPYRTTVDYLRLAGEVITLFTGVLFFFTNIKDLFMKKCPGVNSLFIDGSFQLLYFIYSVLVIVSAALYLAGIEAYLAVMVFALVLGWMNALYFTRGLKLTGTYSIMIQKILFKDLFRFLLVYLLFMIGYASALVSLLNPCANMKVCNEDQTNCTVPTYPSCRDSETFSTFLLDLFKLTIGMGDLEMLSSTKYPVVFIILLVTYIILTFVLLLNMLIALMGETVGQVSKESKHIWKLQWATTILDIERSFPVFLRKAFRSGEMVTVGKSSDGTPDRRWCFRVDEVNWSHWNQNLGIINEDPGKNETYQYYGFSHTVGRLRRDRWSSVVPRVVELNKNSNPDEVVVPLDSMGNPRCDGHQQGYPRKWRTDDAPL

As usually defined, the IC50 is the concentration needed to halve the response being measured. A lower IC50 goes with inhibition by little substance. Turning to `CN(C(=O)c1csc(C2(c3nc4c(c(=O)[nH]3)CN(C(=O)[C@H](O)c3cccc(C(F)(F)F)c3)CCC4)CC2)c1)C(c1ccccc1)c1ccccc1` [59-13], the IC50 under setting [1] is < 50 nM and the 50% inhibitory concentration (IC50) under setting [2] was < 10 nM.
The matching figures for `CC(C)N(C(=O)c1csc(C2(c3nc4c(c(=O)[nH]3)CN(C(=O)[C@H](O)c3cccc(C(F)(F)F)c3)CCC4)CC2)c1)C(C)C` [59-14, (R)-5-(1-(6-(2-hydroxy-2-(3-(trifluoromethyl)phenyl)acetyl)-4-oxo-4,5,6,7,8,9-hexahydro-3H-pyrimido[5,4-c]azepin-2-yl)cyclopropyl)-N,N-diisopropylthiophene-3-carboxamide]: < 50 nM and < 10 nM.
The matching figures for `CC(C)N(C(=O)c1csc(C2(c3nc4c(c(=O)[nH]3)CN(C(=O)[C@H](O)c3cccc(C(F)(F)F)c3)CCC4)CC2)c1)C1CCCCC1` [59-15]: < 50 nM and < 10 nM.
For `O=C([C@H](O)c1cccc(C(F)(F)F)c1)N1CCCc2nc(C3(c4cc(C(=O)N(Cc5ccccc5)C5CCCCC5)cs4)CC3)[nH]c(=O)c2C1` [59-16] the same measures were < 50 nM and < 10 nM.
On to `CN(Cc1ccc2ccccc2c1)C(=O)c1csc(C2(c3nc4c(c(=O)[nH]3)CN(C(=O)[C@H](O)c3cccc(C(F)(F)F)c3)CCC4)CC2)c1` [59-17], for which the half-inhibitory concentration (IC50) is < 50 nM under setting [1] and < 10 nM under setting [2].
Regarding `O=C([C@H](O)c1cccc(C(F)(F)F)c1)N1CCCc2nc(C3(c4cc(C(=O)N(C5CCCCC5)C5CCCCC5)cs4)CC3)[nH]c(=O)c2C1` [59-18], the half-inhibitory concentration (IC50) is < 50 nM under setting [1] and < 10 nM under setting [2].
Regarding `CN(C(=O)c1csc(C2(c3nc4c(c(=O)[nH]3)CN(C(=O)[C@H](O)c3cccc(C(F)(F)F)c3)CCC4)CC2)c1)C(C)(C)C` [59-19], the IC50 under setting [1] is < 50 nM.
The same measure, in the same setting: in the case of `CC(=O)c1cccc(C2(c3nc4c(c(=O)[nH]3)CN(C(=O)[C@H](O)c3cccc(C(F)(F)F)c3)CCC4)CC2)c1` [60-1, (R)-2-(1-(3-acetylphenyl)cyclopropyl)-6-(2-hydroxy-2-(3-(trifluoromethyl)phenyl)acetyl)-3,5,6,7,8,9-hexahydro-4H-pyrimido[5,4-c]azepin-4-one] it was < 50 nM.

The values above are taken from patent US12673946B2, “Pyrimidin-4(3H)-one derivatives as TRPV4 antagonists” (RaQualia Pharma Inc., priority 2020, dated 2026).
